Assay results: patent US20120053197A1, “TRICYCLIC PYRIDINE DERIVATIVES, MEDICAMENTS CONTAINING SUCH COMPOUNDS, THEIR USE AND PROCESS FOR THEIR PREPARATION” (BOEHRINGER INGELHEIM INTERNATIONAL GMBH, priority 2010, published 2012)

target: T1, recombinant human CETP (Homo sapiens, UniProt P11597); experiment: CETP in vitro fluorometric assay (Roar Biomedical), cholesterol ester transfer from HDL to LDL; assay type: biochemical; conditions: recombinant human CETP from CHO cells; 3 hours at 37° C.; fluorescence ex 485 nm / em 535 nm; compound concentrations between 1 nM and 30 μM; read-out: IC50 values for inhibition of CETP
T1 construct: made in house; host or cells: CHO cells (protein secreted into conditioned medium)
T1 sequence (P11597 18-493): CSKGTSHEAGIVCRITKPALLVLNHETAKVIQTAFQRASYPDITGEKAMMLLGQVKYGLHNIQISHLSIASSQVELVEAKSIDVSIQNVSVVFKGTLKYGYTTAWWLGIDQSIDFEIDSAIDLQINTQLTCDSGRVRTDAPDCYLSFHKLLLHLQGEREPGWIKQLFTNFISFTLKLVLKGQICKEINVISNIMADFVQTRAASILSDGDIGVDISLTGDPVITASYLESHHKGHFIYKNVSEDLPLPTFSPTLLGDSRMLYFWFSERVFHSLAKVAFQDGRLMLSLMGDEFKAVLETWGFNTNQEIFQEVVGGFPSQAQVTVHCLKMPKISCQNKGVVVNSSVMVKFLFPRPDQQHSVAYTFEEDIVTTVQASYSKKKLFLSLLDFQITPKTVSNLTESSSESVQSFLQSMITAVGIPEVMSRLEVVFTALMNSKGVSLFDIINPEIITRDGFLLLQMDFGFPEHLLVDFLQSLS
Description: CETP inhibitory activity of compounds of the present invention can be determined in a fluorometric assay puchased from Roar Biomedical, Inc. (New York, N.Y., USA). […] Recombinant human CETP was partially purified from medium conditioned by CETP expressing CHO cells. In a 384 well format 2.5 μl of compound solution in DMSO was combined with 2 μl of donor solution, 2 μl of acceptor solution and 0.8 μl of recombinant human CETP solution in a total volume of 100 μl with assay buffer and incubated for 3 hours at 37° C. The fluorescence intensity was measured at excitation wavelength of 485 nm and emission wavelength of 535 nm. IC50 values are calculated from dose effect curves from compound concentrations between 1 nM and 30 μM.

Compound	IC50
CC(C)Cc1ccc([C@H]2OC3(CCCC3)c3c2c(C(C)C)nc2c3[C@@H](O)CC(C)(C)C2)cc1 [1(27), (3′R,9′S)-3′-(4-isobutylphenyl)-4′-isopropyl-7′,7′-dimethyl-6′,7′,8′,9′-tetrahydro-3′H-spiro[cyclopentane-1,1′-furo[3,4-c]quinolin]-9′-ol]	299 nM
CC(C)c1nc2c(c3c1[C@@H](c1ccc(C(F)(F)F)cc1)OC31CCOCC1)[C@@H](O)CC(C)(C)C2 [1(30), (3R,9S)-4-isopropyl-7,7-dimethyl-3-(4-(trifluoromethyl)phenyl)-2′,3′,5′,6,6′,7,8,9-octahydro-3H-spiro[furo[3,4-c]quinoline-1,4′-pyran]-9-ol]	18 nM
CC(C)c1nc2c(c3c1[C@@H](c1ccc(OC(F)(F)F)cc1)OC31CCCC1)[C@@H](O)CC(C)(C)C2 [1(17), (3′R,9′S)-4′-isopropyl-7′,7′-dimethyl-3′-(4-(trifluoromethoxy)phenyl)-6′,7′,8′,9′-tetrahydro-3′H-spiro[cyclopentane-1,1′-furo[3,4-c]quinolin]-9′-ol]	131 nM
CC(C)c1ccc([C@H]2OC3(CCCC3)c3c2c(C2CCCC2)nc2c3[C@@H](O)CC(C)(C)C2)cc1 [1(29), (3′R,9′S)-4′-cyclopentyl-3′-(4-isopropylphenyl)-7′,7′-dimethyl-6′,7′,8′,9′-tetrahydro-3′H-spiro[cyclopentane-1,1′-furo[3,4-c]quinolin]-9′-ol]	88 nM
CC1(C)Cc2nc(C3CCOCC3)c3c(c2[C@@H](O)C1)C1(CCCC1)O[C@@H]3c1ccc(C(F)(F)F)cc1 [1(5), (3′R,9′S)-7′,7′-dimethyl-4′-(tetrahydro-2H-pyran-4-yl)-3′-(4-(trifluoromethyl)phenyl)-6′,7′,8′,9′-tetrahydro-3′H-spiro[cyclopentane-1,1′-furo[3,4-c]quinolin]-9′-ol]	42 nM
CC(C)c1nc2c(c3c1[C@@H](c1ccc(C(F)(F)F)nc1)OC31CCCC1)[C@@H](O)CC(C)(C)C2 [1(12), (3′R,9′S)-4′-isopropyl-7′,7′-dimethyl-3′-(6-(trifluoromethyl)pyridin-3-yl)-6′,7′,8′,9′-tetrahydro-3′H-spiro[cyclopentane-1,1′-furo[3,4-c]quinolin]-9′-ol]	150 nM
CC(C)c1nc2c(c3c1[C@H](c1ccc(C(F)(F)F)cc1)O[C@]31C=CCC1)[C@@H](O)CC(C)(C)C2 [1(2), (1R,3′S,9′S)-4′-isopropyl-7′,7′-dimethyl-3′-(4-(trifluoromethyl)phenyl)-6′,7′,8′,9′-tetrahydro-3′H-spiro[cyclopent[2]ene-1,1′-furo[3,4-c]quinolin]-9′-ol]	4680 nM
CC(C)c1nc2c(c3c1[C@H](c1ccc(C(C)(C)C#N)cc1)OC31CCCC1)[C@@H](O)CC(C)(C)C2 [1(23), 2-(4-((3′S,9′S)-9′-hydroxy-4′-isopropyl-7′,7′-dimethyl-6′,7′,8′,9′-tetrahydro-3′H-spiro[cyclopentane-1,1′-furo[3,4-c]quinoline]-3′-yl)phenyl)-2-methylpropanenitrile]	2140 nM
CC(C)c1nc2c(c3c1[C@@H](c1ccc(F)cc1)OC31CCCC1)[C@@H](O)CC(C)(C)C2 [1(8), (3′R,9′S)-3′-(4-fluorophenyl)-4′-isopropyl-7′,7′-dimethyl-6′,7′,8′,9′-tetrahydro-3′H-spiro[cyclopentane-1,1′-furo[3,4-c]quinolin]-9′-ol]	856 nM
Cc1ccc([C@H]2OC3(CCCC3)c3c2c(C(C)C)nc2c3[C@@H](O)CC(C)(C)C2)cc1 [1(14), (3′R,9′S)-4′-isopropyl-7′,7′-dimethyl-3′-p-tolyl-6′,7′,8′,9′-tetrahydro-3′H-spiro[cyclopentane-1,1′-furo[3,4-c]quinolin]-9′-ol]	409 nM
CC(C)c1nc2c(c3c1[C@@H](c1ccc(C(C)(C)C)cc1)OC3(C)C)[C@@H](O)CC(C)(C)C2 [1(18), (3R,9S)-3-(4-tert-butylphenyl)-4-isopropyl-1,1,7,7-tetramethyl-1,3,6,7,8,9-hexahydrofuro[3,4-c]quinolin-9-ol]	363 nM
CC(C)c1nc2c(c3c1[C@@H](c1ccc(C(F)(F)F)s1)OC31CCCC1)[C@@H](O)CC(C)(C)C2 [1(24), (3′S,9′S)-4′-isopropyl-7′,7′-dimethyl-3′-(5-(trifluoromethyl)thiophen-2-yl)-6′,7′,8′,9′-tetrahydro-3′H-spiro[cyclopentane-1,1′-furo[3,4-c]quinolin]-9′-ol]	286 nM
CC(C)c1nc2c(c3c1[C@H](c1ccc(C(F)(F)F)cc1)OC31CCCC1)[C@@H](O)CC(C)(C)C2 [1(1), (3′S,9′S)-4′-isopropyl-7′,7′-dimethyl-3′-(4-(trifluoromethyl)phenyl)-6′,7′,8′,9′-tetrahydro-3′H-spiro[cyclopentane-1,1′-furo[3,4-c]quinolin]-9′-ol]	1430 nM
CC(C)c1nc2c(c3c1[C@@H](c1ccc(C(F)(F)F)cn1)OC31CCCC1)[C@@H](O)CC(C)(C)C2 [1(21), (3′S,9′S)-4′-isopropyl-7′,7′-dimethyl-3′-(5-(trifluoromethyl)pyridin-2-yl)-6′,7′,8′,9′-tetrahydro-3′H-spiro[cyclopentane-1,1′-furo[3,4-c]quinolin]-9′-ol]	124 nM

The remaining lines, values ahead:

IC50	Compound
122 nM	CC(C)c1nc2c(c3c1[C@@H](c1ccc(C4CC4)cc1)OC31CCCC1)[C@@H](O)CC(C)(C)C2 [1(45), (3′R,9′S)-3′-(4-cyclopropylphenyl)-4′-isopropyl-7′,7′-dimethyl-6′,7′,8′,9′-tetrahydro-3′H-spiro[cyclopentane-1,1′-furo[3,4-c]quinolin]-9′-ol]
3320 nM	CC(C)c1nc2c(c3c1[C@@H](c1cc(F)cc(F)c1)OC31CCCC1)[C@@H](O)CC(C)(C)C2 [1(38), (3′R,9′S)-3′-(3,5-difluorophenyl)-4′-isopropyl-7′,7′-dimethyl-6′,7′,8′,9′-tetrahydro-3′H-spiro[cyclopentane-1,1′-furo[3,4-c]quinolin]-9′-ol]
54 nM	CC(C)c1nc2c(c3c1[C@@H](c1ccc(C(F)(F)F)cc1)OC31CCCC1)[C@@H](O)CC(C)(C)C2 [Example 1, (3′R,9′S)-4′-isopropyl-7′,7′-dimethyl-3′-(4-(trifluoromethyl)phenyl)-6′,7′,8′,9′-tetrahydro-3′H-spiro[cyclopentane-1,1′-furo[3,4-c]quinolin]-9′-ol]
22 nM	CC1(C)Cc2nc(C3CCOCC3)c3c(c2[C@@H](O)C1)C1(CCCC1)O[C@@H]3c1ccc(S(F)(F)(F)(F)F)cc1 [1(43), (3′R,9′S)-7′,7′-dimethyl-4′-(tetrahydro-2H-pyran-4-yl)-3′-(4-(pentafluorosulfanyl)phenyl)-6′,7′,8′,9′-tetrahydro-3′H-spiro[cyclopentane-1,1′-furo[3,4-c]quinolin]-9′-ol]
394 nM	CC(C)c1nc2c(c3c1[C@@H](c1ccc(C(F)(F)F)cc1)OC31CCCC1)[C@@H](O)CC(C)(C)[C@@H]2O [3(1), (3′R,6′S,9′S)-4′-isopropyl-7′,7′-dimethyl-3′-(4-(trifluoromethyl)phenyl)-6′,7′,8′,9′-tetrahydro-3′H-spiro[cyclopentane-1,1′-furo[3,4-c]quinoline]-6′,9′-diol]
74 nM	CC1(C)Cc2nc(C3CCOCC3)c3c(c2[C@@H](O)C1)C1(CCCC1)O[C@@H]3c1ccc(C(C)(C)C)cc1 [1(36), (3′R,9′S)-3′-(4-tert-butylphenyl)-7′,7′-dimethyl-4′-(tetrahydro-2H-pyran-4-yl)-6′,7′,8′,9′-tetrahydro-3′H-spiro[cyclopentane-1,1′-furo[3,4-c]quinolin]-9′-ol]
1070 nM	CC1(C)Cc2nc(C3CCCC3)c3c(c2[C@@H](O)C1)C1(CCCC1)O[C@@H]3c1cccc(C(C)(C)C)c1 [1(31), (3′R,9′S)-3′-(3-tert-butylphenyl)-4′-cyclopentyl-7′,7′-dimethyl-6′,7′,8′,9′-tetrahydro-3′H-spiro[cyclopentane-1,1′-furo[3,4-c]quinolin]-9′-ol]
62 nM	CC(C)(C)c1ccc([C@H]2OC3(CCCC3)c3c2c(C2CCOCC2)nc2c3[C@@H](O)CC(C)(C)[C@H]2O)cc1 [Example 4, (3′R,6′R,9′S)-3′-(4-tert-butylphenyl)-7′,7′-dimethyl-4′-(tetrahydro-2H-pyran-4-yl)-6′,7′,8′,9′-tetrahydro-3′H-spiro[cyclopentane-1,1′-furo[3,4-c]quinoline]-6′,9′-diol]
52 nM	CC(C)c1ccc([C@H]2OC3(CCCC3)c3c2c(C(C)C)nc2c3[C@@H](O)CC3(CCC3)C2)cc1 [1(35), (3′R,9′S)-4′-isopropyl-7′,7′-(propan-1,3-diyl)-3′-(4-(isopropyl)phenyl)-6′,7′,8′,9′-tetrahydro-3′H-spiro[cyclopentane-1,1′-furo[3,4-c]quinolin]-9′-ol]
62 nM	CC(C)c1nc2c(c3c1[C@@H](c1ccc(C(C)(F)F)cc1)OC31CCCC1)[C@@H](O)CC(C)(C)C2 [1(32), (3′R,9′S)-3′-(4-(1,1-difluoroethyl)phenyl)-4′-isopropyl-7′,7′-dimethyl-6′,7′,8′,9′-tetrahydro-3′H-spiro[cyclopentane-1,1′-furo[3,4-c]quinolin]-9′-ol]
